Measured values: the supplement of paper PMC4954754
Values joined by “and” are separate entries in the source; they are usually repeats but may differ in a detail not shown here. Equal entries are not always repeated. ± gives the uncertainty stated by the source.

Key:
Conditions in all cases: 18 h
HEK293T-Rex ERSE-FLuc [1] = assay: maximal ERSE-FLuc activation from dose-response fit, relative to thapsigargin (% of thapsigargin); higher = stronger activation
Experimental: (§1)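 Dose-response of hit compounds in HEK293T-Rex cells stably expressing ERSE-FLuc or XBP1-RLuc reporters, 18 hr treatment, 1536-well; luminescence normalised to 500 nM thapsigargin (100%) and DMSO (0%), fitted to give EC50 (M) and maximal activation; '>' marks EC50 above the top tested dose (~17 µM).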

HEK293T-Rex XBP1-RLuc [2] = assay: EC50 for XBP1-RLuc reporter activation
Experimental: as §1

HEK293T-Rex ERSE-FLuc [3] = assay: EC50 for ERSE-FLuc reporter activation
Experimental: as §1

HEK293T-Rex XBP1-RLuc [4] = assay: maximal XBP1-RLuc activation from dose-response fit, relative to thapsigargin (% of thapsigargin); higher = stronger activation
Experimental: as §1

SMILES	maximal ERSE-FLuc activation (HEK293T-Rex ERSE-FLuc [1])	EC50 for XBP1-RLuc reporter activation (HEK293T-Rex XBP1-RLuc [2])	EC50 for ERSE-FLuc reporter activation (HEK293T-Rex ERSE-FLuc [3])	maximal XBP1-RLuc activation (HEK293T-Rex XBP1-RLuc [4])
COc1ccc2c(Cl)c(C(=O)Nc3ccccc3C(N)=O)sc2c1	21.3 ± 1.3	> 16.9 µM	> 16.9 µM	6.81 ± 1.3
CN(C)c1ccc(C2C(C#N)=C(N)Oc3c2sc2ccccc32)cc1[N+](=O)[O-] (configuration not stated)	15.8 ± 4.9	> 17.2 µM	> 17.2 µM	4.37 ± 1
C/C=C(/C)C(=O)O[C@H]1C(C)=C2[C@H]([C@@H]1OC(=O)CCCCCCC)[C@@](C)(OC(C)=O)C[C@H](OC(=O)CCC)[C@@]1(O)[C@H]2OC(=O)[C@@]1(C)O	100 and 87.8	0.11 µM and 0.146 µM	0.07 µM and 0.0669 µM	127 and 103
O=C(CCc1ccccc1)Nc1ccc(Cl)cn1	26.1 ± 2.5	> 17.7 µM	> 17.7 µM	5.24 ± 0.68
O=C(Nc1ccccc1O)c1ccc(C(=O)c2ccccc2)cc1	103 ± 3.3	> 16.8 µM	7.47 µM	15.1 ± 5.4
COc1ccc(CCNC(=O)c2cccc(-c3ccc(N4CCOCC4)nc3)c2)cc1	15.9 ± 4.6	> 17 µM	> 17 µM	2.04 ± 0.93
O=C(Nc1ccccc1O)c1ccc(NS(=O)(=O)c2cccc3cccnc23)cc1	85.2 ± 7.5	> 16.9 µM	10 µM	21.8 ± 6.3
Cc1cccc2c1[nH]c1nc(N/N=C\c3c[nH]c4ccccc34)nnc12	41.7 ± 12	> 16.9 µM	> 16.9 µM	32.4 ± 5.6
OCCNc1nc(Nc2ccc(Br)cc2)nc2ccccc12	132 ± 7.4	7.94 µM	4.93 µM	57 ± 8.1
Cc1ccc2c(N)c(C(=O)c3ccc4c(c3)OCO4)sc2n1	25.1 ± 2.7	> 16.9 µM	> 16.9 µM	11.4 ± 3.8
Cc1ccc(O)c(NC(=O)c2cc(-c3cccs3)on2)c1	126 ± 5.9	> 16.9 µM	2.78 µM	32.4 ± 6.1
CCOc1ccc(/C=C(\C#N)c2[nH]nc(N)c2C#N)cc1OCC	59.8 ± 6.2	> 16.9 µM	10 µM	15.1 ± 1.6
O=C(N/N=C/c1cccc(O)c1O)c1ccccn1	25.7 ± 1.9	> 18.4 µM	> 18.4 µM	20.3 ± 1.1
N#Cc1c(NC(=O)c2cnccn2)sc2c1CCCC2	18.9 ± 4.8	> 17.9 µM	> 17.9 µM	4.67 ± 1.1
O=C1/C(=C/c2ccc(O)c(O)c2)Oc2cc(O)ccc21	46.2 ± 4.5	> 16.9 µM	> 16.9 µM	24.1 ± 2.3
Cc1ccc2nc(/C(C#N)=C/c3ccc(O)cc3)[nH]c2c1	35.3 ± 5.6	> 16.9 µM	> 16.9 µM	21.3 ± 3.4
COc1ccc2[nH]c3c(N4CCCCC4)ncnc3c2c1	27.4 ± 2.9	> 17.1 µM	> 17.1 µM	9.73 ± 1.4
O=c1[nH]c(/C=C2\C=Nc3ccccc32)c(O)n1-c1ccc(Cl)cc1	44.1 ± 7.8	4.87 µM	> 16.9 µM	89 ± 4.6
O=C(NCCc1ccc(O)cc1)c1ccc2nc(-c3csc4ccccc34)sc2c1	99.4 ± 20	13.3 µM	11.6 µM	105 ± 13
CN(C)c1ccc(/C=N/NC(=O)c2cccc(Br)c2)cc1	19.2 ± 4.8	> 16.9 µM	> 16.9 µM	2.34 ± 2
O=C(/C=C/c1ccco1)Nc1ccc(Br)cc1Cl	23.5 ± 2.5	> 16.9 µM	> 16.9 µM	4.5 ± 6.9
OCCNc1nc(Nc2ccc(Cl)c(Cl)c2)nc2ccccc12	144 ± 47	4.98 µM	4.13 µM	73.7 ± 9

SMILES	maximal ERSE-FLuc activation (HEK293T-Rex ERSE-FLuc [1])	EC50 for XBP1-RLuc reporter activation (HEK293T-Rex XBP1-RLuc [2])	EC50 for ERSE-FLuc reporter activation (HEK293T-Rex ERSE-FLuc [3])	maximal XBP1-RLuc activation (HEK293T-Rex XBP1-RLuc [4])
Cc1cc(C)nc(/N=C(\N)Nc2ccc(OCCC(C)C)cc2)n1	45.3 ± 7.7	> 5.17 µM	> 15.5 µM	89.1 ± 9.1
O=C(CCCN1CCC2(CC1)C(=O)NCN2c1ccccc1)c1ccc(F)cc1	157 ± 16	3.23 µM	7.34 µM	186 ± 12
COc1c(O)cc2oc(-c3ccc(O)c(O)c3)cc(=O)c2c1O	129 ± 3.5	8.02 µM	3.69 µM	57.9 ± 2.8
O=C(NC1CCCC1)c1cc(-c2cccs2)on1	57.6 ± 6.2	> 16.9 µM	13.4 µM	11.9 ± 3.2
N/C(=N\N=C\c1ccc(O)c(O)c1)c1nonc1N	96.9 ± 3.7	> 16.9 µM	5.38 µM	41.6 ± 6.1
COc1ccc(C2C=C3Oc4ccccc4N=C3NN2)cc1 (configuration not stated)	27 ± 2.8	> 16.9 µM	> 16.9 µM	14.1 ± 2.1
CN(c1ccccc1)S(=O)(=O)c1cccc(C(=O)NCCc2ccc(O)c(O)c2)c1	202 ± 34	8.35 µM	6.56 µM	125.1 ± 1
Nc1ccc2nc(/C=C/c3ccccc3)[nH]c2c1	34.4 ± 4.7	> 15.3 µM	> 15.3 µM	23.8 ± 1.7
COc1cccc(-c2nc3ccc(N)cc3[nH]2)c1	20.8 ± 3.1	> 16.9 µM	> 16.9 µM	14.7 ± 3.4
O=C1NC(=Nc2ccccc2)S/C1=C/c1ccc(O)c(O)c1	83.8 ± 12	> 15.4 µM	6.2 µM	38.5 ± 6.1
Cc1ccc(O)c(NC(=O)c2cc(C(C)C)on2)c1	39.9 ± 7.2	> 16.9 µM	> 16.9 µM	14.4 ± 1.7
Nc1cn(-c2ccccc2)nc1-c1cccs1	47.7 ± 4.1	3.71 µM	> 19.6 µM	156 ± 4.4
Nc1c(C(=O)Nc2ccccc2)sc2nc3c(cc12)CCCCC3	29.8 ± 4.8	> 16.5 µM	> 16.5 µM	15.7 ± 1.2
O=C(CCCN1CCC2(CC1)C(=O)N(Cc1cccc(F)c1)CN2c1ccccc1)c1ccc(F)cc1	187 ± 19	4.02 µM	4.46 µM	214 ± 7.7
COc1cccc(C(=O)Nc2nc3ccc(C)cc3s2)c1	31.7 ± 6.6	> 20.6 µM	> 20.6 µM	10.2 ± 2.3
Cc1ccc(O)c(-c2cc(-c3ccc(F)cc3)n[nH]2)c1	71.4 ± 16	> 19 µM	10.5 µM	17.2 ± 4
Oc1cccc(Nc2nc(-c3ccc(O)c(O)c3)cs2)c1	83.3 ± 11	16.5 µM	12.5 µM	51.6 ± 3.2
Cc1ccc2nc(NC(=O)c3cccc4ccccc34)sc2c1	38.8 ± 5.3	> 15.1 µM	> 15.1 µM	11.2 ± 1.2
COc1cccc(/C=N\NC(=O)c2n[nH]c3c2CCC3)c1	25.8 ± 1.9	> 16.6 µM	> 16.6 µM	4.03 ± 2.5
CN(C)c1ccc(-c2nc3ccc(N)cc3[nH]2)cc1	42.7 ± 3.8	> 15.6 µM	> 15.6 µM	32 ± 6
COc1ccccc1-c1cc(C(=O)Nc2cc(C)ccc2O)no1	25.7 ± 7.9	> 16.9 µM	> 16.9 µM	18 ± 2.5
